This is an account of results in patent US10329532B2, “Method to direct differentiation of pluripotent stem cells into functional heart muscle” (GEORG-AUGUST-UNIVERSITÄT GÖTTINGEN STIFTUNG ÖFFENTLICHEN …, priority 2013, dated 2019).

Entries after “also recorded” stand apart in the source; their conditions may differ. Where two headings read alike, the source gives them in different places.

What all share (format): cell-based, human
In experiment [1] the test system is HES2 hPSCs. The experiment is described as follows: 2D cardiac differentiation of hPSC (MESP1 qPCR day 3, α-actinin flow cytometry day 16, beating activity). The text has this: For this reason a cardiac differentiation protocol was firstly required which consistently produced cardiomyocytes and fibroblasts/stromal cells. The inventors optimized their cardiac differentiation protocol (FIG. 1a) for both yield and consistency, based on a previously published serum-free 2D hPSC differentiation protocol (Hudson et al. Stem Cells Dev 21, 1513-1523 (2012)). It was reasoned that robustness and efficiency could be enhanced if WNT activity was stabilized during the mesoderm induction phase. As surrogate marker for mesoderm induction MESP1 expression was analysed by qPCR on culture day 3; this was followed by flow cytometry for α-actinin (cardiomyocyte marker) at day 16, which were found correlated very well with the amount of beating activity.
Cardiac differentiation was optimized on the HES2 line. HES2 hPSCs were plated at 5×10^4 cells/cm^2 (1×10^5 cells/cm^2 for HES3 and hIPS lines) on 1:30 Matrigel/PBS coated-plates and cultured in 1:1 PSC-medium minus FGF-2 and HFF-conditioned medium (HFF-CM—harvested from 5 day confluent irradiated HFF cultures) with 10 ng/mL FGF2. For the hIPS line 10 μM Y-27632 was added to this medium. After 1 day the cells were rinsed with RPMI medium, then differentiated as indicated in each figure with 0.5 ml of medium in each well of a 24 well plate. The protocol details for each figure are outlined in FIG. 8.
(§1) Cells, BHMs or human heart biopsies were harvested and stored at −80° C. until RNA extraction using Trizol following manufacturer's instructions (Applied Biosystems). 1 μg of RNA was then treated with DNAse (Roche) followed by cDNA synthesis using a High Capacity cDNA Reverse Transcription Kit (Applied Biosystems). qPCR was performed using Fast SYBR Green Master Mix (Applied Biosystems) on a 384-well format AB7900 HT (Applied Biosystems). Gene expression was normalized using 2^−ΔCt or 2^−ΔΔCt using GAPDH as the housekeeping gene which we found to be consistently expressed between conditions in all of our experiments. Primer details are given in below Table 1.
(§2) Cells were stained either live or fixed using Histofix for 10 min at room temperature or ethanol. The cells were stained in 5% FBS in PBS (membrane blocking buffer) for cell surface markers (excluding TRA-1-60) and blocking buffer for internal markers. The cells were then stained with primary antibodies in blocking buffer for 45 min followed by secondary antibodies in blocking buffer and Hoechst for 30 min at 4° C. (Table 2). A BD LSRII was used for flow cytometry analysis (BD Biosystems). Live cells populations were gated based on forward-side scatter profiles; fixed cells populations were gated based on Hoechst staining. BD FACSDiva Software (BD Bioscience) or Cyflologic v1.2.1 (Cyflo Ltd) were used for analysis.
On the technique in general: In qPCR the cycle at which signal appears reflects the starting amount.

Experiment [2] concerns bioengineered heart muscle (BHM). Kind of experiment: Flow cytometry of disassociated BHM (cell composition, cardiomyocyte size, cell cycle, cell number). The following applies: for cardiomyocyte size: growth factor added during cardiac maturation (FGF2: 10 ng/mL, TGFb1: 1 ng/mL). The protocol:
(§3) BHM formation was optimized on the HES2 line. HES2 hPSCs were suspended 1:1 in PSC-medium minus FGF-2 and HFF-conditioned medium (HFF-CM—harvested from 5 day confluent irradiated HFF cultures) with 10 ng/mL FGF2 and mixed with a collagen I hydrogel. For the HES3, and hIPS lines 10 μM Y-27632 was also added to the medium. The collagen I matrix was formulated with acid-soluabilized bovine collagen I (Devro) with an equi-volume of 2×DMEM (Gibco) and neutralized using 0.1 M sodium hydroxide. The hPSC/collagen I matrix was formulated to give a final collagen I concentration of 1 mg/ml and 5×10^5 hPSC per 170 μl. For the HES3 and hIPS lines 1×10^6 and 0.5×10^6 cells were used respectively per 170 μl. For each BHM, 170 μl of the hPSC/collagen I matrix was pipette into circular molds (i.d.=4 mm, o.d.=10 mm) fabricated using poly(dimethylsiloxane) (Sylgard, Dow Corning). After 10 min of culture in the incubator at 37° C. the collagen gelled and 1.25 ml of 1:1 human foreskin fibroblast-conditioned medium with 10 ng/ml FGF2 was added per BHM. The following day the BHMs were rinsed with RPMI medium and then differentiated as indicated in each figure, with 1.25 ml of medium per BHM. At day 13 the BHM were transferred onto mechanical stimulators as indicated. The protocol details for each figure are outlined in FIG. 8.
For the initial BHM digestion protocol, BHMs were disassociated in 0.025 mg/ml Liberase TM (Roche), 30 mM 2,3-butanedione monoxime at 37° C. for 60 min in PBS. To preserve cell surface markers, BHM was disassociated using the same protocol as for the 2D digestion.
as §2
For orientation: A flow cytometer gives signals particle by particle.

The test system is the same in experiment [3]. The experiment is described as follows: Isometric contraction measurements of BHM (twitch tension/force of contraction) in organ baths. The following applies: for twitch tension/force of contraction: growth factor added during cardiac maturation (FGF2: 10 ng/mL, TGFb1: 1 ng/mL). As to the method:
Briefly, contraction experiments are performed in organ baths at 37° C. under constant bubbling with 5% CO2 and 95% O2 to maintain a physiological pH in Tyrode's solution containing (all in mM): 120 NaCl, 1 MgCl2, 0.2 CaCl2, 5.4 KCl, 22.6 NaHCO3, 4.2 NaH2PO4, 5.6 glucose and 0.56 ascorbate. Calcium is adjusted using a 0.2 M calcium chloride solution. All BHM are analysed at 3 Hz with 5 ms square pulses of 200 mA electrical current in order to pace at approximately the embryonic heart rate. Stimulation frequency is altered to confirm proper force-frequency response (Bowditch mechanism). BHM are mechanically stretched at intervals of 125 μm until the maximum twitch force is observed (force-length response; Frank-Starling mechanism).
Briefly, all contraction experiments are performed in organ baths at 37° C. and physiological pH in Tyrode's solution containing (all in mM): 120 NaCl, 1 MgCl2, 0.2 CaCl2, 5.4 KCl, 22.6 NaHCO3, 4.2 NaH2PO4, 5.6 glucose and 0.56 ascorbate. Calcium is adjusted using a 0.2 M calcium chloride solution. All BHM are analysed at 3 Hz with 5 ms square pulses of 200 mA electrical current in order to pace at approximately the embryonic heart rate. Stimulation frequency is altered to confirm proper force-frequency response (Bowditch mechanism). BHM are mechanically stretched at intervals of 125 μm until the maximum twitch force is observed at 2 mM calcium (Frank-Starling mechanism). Subsequently, BHM are subjected to different calcium concentrations (0.2, 0.4, 0.8, 1.2, 1.6, 2.0, 2.4 mM) and the twitch force is recorded. For isoprenaline experiments the calcium concentration is adjusted to 0.6 mM and subsequently the isoprenaline concentration is adjusted to 1 μM.
as §3
Contraction experiments were performed in organ baths at 37° C. and continuous bubbling with 5% CO2/95% O2 to maintain a physiological pH in Tyrode's solution containing (all in mM): 120 NaCl, 1 MgCl2, 0.2 CaCl2, 5.4 KCl, 22.6 NaHCO3, 4.2 NaH2PO4, 5.6 glucose and 0.56 ascorbate. Calcium was adjusted using a 0.2 M calcium chloride solution. All BHM were first analysed at 3 Hz with 5 ms square pulses of 200 mA in order to pace at approximately the embryonic heart rate. BHM were mechanically stretched at intervals of 125 μm until Lmax, i.e. the tissue length were maximum twitch tension/force of contraction was recorded in the presence of maximally inotropically active calcium concentrations (2 mmol/L; Frank-Starling mechanism). Subsequently, BHM were subjected to different calcium concentrations (0.2, 0.4, 0.8, 1.2, 1.6, 2.0, 2.4 mM) and the twitch force recorded. […]

For experiment [4] the test system is unchanged. The experiment is described as follows: qPCR gene expression in BHM. The following applies: for pathological hypertrophy marker ANP expression / β-MHC/α-MHC expression ratio: growth factor added during cardiac maturation (FGF2: 10 ng/mL, TGFb1: 1 ng/mL). The protocol: as §3, §1
Setting [5] is: calcium adjusted to 1.2 mM during cardiac maturation.
The mark [6] stands for this setting: ASC-2-P during the entire differentiation protocol, data not shown.

`Cc1c[nH]c(-c2cnc(NCCNc3ccc(C#N)cn3)nc2-c2ccc(Cl)cc2Cl)n1` [CHIR, CHIR99021, reference compound]: the beating activity result in experiment [1] (CHIR alone or with the differentiation factors used in FIG. 1b,c) is given as “unable to induce any beating activity”.

In the case of “FGF2: growth factor FGF2 (Miltenyi Biotec)”, in experiment [2], the cardiomyocyte size entry is on record as “increase in cardiomyocyte size”. Also, the “twitch tension/force of contraction” value in experiment [3] is reported as “trend to decreased twitch tension”. In experiment [4], the “pathological hypertrophy marker ANP expression” value is listed as “induced (variably) pathological hypertrophy marker ANP” and the β-MHC/α-MHC expression ratio entry is recorded as “did not change β-MHC/α-MHC expression ratio”. Further, the α-actinin entry in experiment [1] (5 ng/ml FGF2 during the first 3 days of differentiation, flow cytometry day 16) was “trend to increased α-actinin”. For the same molecule, the MESP1 expression result in experiment [1] (5 ng/ml FGF2 during the first 3 days of differentiation, qPCR day 3) is given as “trend to increased MESP1 expression”.

For orientation: EC50 means the concentration needed to bring the measured effect to its halfway point. Take `[Ca+2]` [calcium]: the EC50 in experiment [3] (29-30 day old BHM (increased culture time), read-out: calcium EC50 (twitch tension)) is 700 µM; in experiment [3] (22 day old BHM (previous data), read-out: calcium EC50 (twitch tension)), 200 µM; in experiment [3] (characteristic of the BHM obtained by the method, read-out: calcium EC50), greater than 200 µM. The elastic modulus entry in experiment [3] (setting [5]) was “increase”. In addition, the resting tension result in experiment [3] (setting [5]) is “increase in resting tension”. Besides, the “twitch tension of the BHM” value in experiment [3] (calcium adjusted to 1.2 mM during cardiac maturation (RPMI 0.42 mM)) is reported as “greatly increased the twitch tension”. For the same molecule, the “calcium handling proteins by qPCR (CASQ2, PLN, ATP2A2, RYR2)” value in experiment [4] (calcium adjusted to 1.2 mM, data not shown) is “no changes in calcium handling proteins”.

With `c1cc(-c2cnn3cc(-c4ccc(OCCN5CCCCC5)cc4)cnc23)ccn1` [dorsomorphin, reference compound], the “twitch tension/force of contraction, % of the control group” value in experiment [3] (2 μmol/L dorsomorphin with each medium exchange from day 6 onwards) is recorded as 47%.

Regarding `CC(C)NCC(O)c1ccc(O)c(O)c1` (stereo not shown) [isoprenaline, reference compound], the “inotropic response with extended culture” value in experiment [3] (1 μM isoprenaline, 29-30 day vs 22 day old BHM, paced at 0.6 mM calcium) is reported as “increased inotropic response”. Besides, the inotropic response result in experiment [3] (1 μM isoprenaline, paced conditions at 0.6 mM calcium) is on record as “more than 40 μN”.

For the molecule TGFβ1: growth factor TGFβ1 (Peprotech), in experiment [2], the cardiomyocyte size entry is listed as “increase in cardiomyocyte size”. In experiment [3], the “twitch tension/force of contraction” value is “trend to increased twitch tension”. Also, the “contractile function of BHM (FOC: force of contraction)” value in experiment [3] (increasing TGFβ-1 during cardiac maturation phase, 0.3-10 ng/ml tested) is “enhances contractile function of BHM; also recorded: enhancement of contractile function of BHM in a concentration dependent manner”. Moreover, in experiment [4], the “pathological hypertrophy marker ANP expression” value was “decreased” and the β-MHC/α-MHC expression ratio result was “more mature β-MHC/α-MHC expression ratio”.

Take “L-ascorbic acid 2 phosphate sesquimagnesium salt hydrate [ASC-2-P, reference compound]”: in experiment [2] (ASC-2-P supplemented days 0-13), the cardiomyocyte fraction result is recorded as “trend to increased cardiomyocyte fraction” and the stromal cell fraction entry is reported as “no change in the stromal cell fraction”. Further, in experiment [3] (ASC-2-P supplemented during early BHM culture, days 0-13), the “BHM twitch tension/force of contraction” value is “significantly improved”. Also, in experiment [1] (setting [6]), the “cardiac differentiation efficiency in 2D protocol” value is given as “without changes in cardiac differentiation efficiency” and the “number of cells in 2D protocol” value was “significantly increasing the number of cells”.

B1: BMP4: growth factor BMP4 (R&D Systems) (protein, UniProt P12644 293-408, looked up)
Bone morphogenetic protein 4: SPKHHSQRARKKNKNCRRHSLYVDFSDVGWNDWIVAPPGYQAFYCHGDCPFPLADHLNSTNHAIVQTLVNSVNSSIPKACCVPTELSAISMLYLDEYDKVVLKNYQEMVVEGCGCR
B1: the “BMP4 concentration giving optimal and consistent induction of MESP1 and α-actinin expression” value in experiment [1] (BMP4 concentration varied whilst CHIR is present) amounted to 5 ng/mL.
